Measured values taken from ChEMBL document CHEMBL1201862, “PubChem BioAssay data set” (2004).
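Results reflect a 48-hour exposure of cells in 96-well plates to compound at five concentrations. Here, GI50 denotes the concentration required for 50% inhibition of growth.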 Active and inactive are the calls of the source. Rule as the data show it: active = GI50 up to about 1.1 µM and inactive = higher.

Experiments:
Assay in all cases: DTP human tumour cell line panel, 48 h
A549 = tested on: A549
NCI-H23 = tested on: NCI-H23
HOP-62 = tested on: HOP-62
NCI-H522 = tested on: NCI-H522
HOP-92 = tested on: HOP-92
SNB-75 = tested on: SNB-75
HCC 2998 = tested on: HCC 2998
U-251 = tested on: U-251
M19-MEL = tested on: M19-MEL
SF-268 = tested on: SF-268
SR = tested on: SR
SF-295 = tested on: SF-295
OVCAR-8 = tested on: OVCAR-8
BT-549 = tested on: BT-549
LOX IMVI = tested on: LOX IMVI
TK-10 = tested on: TK-10
A498 = tested on: A498
IGROV-1 = tested on: IGROV-1
COLO 205 = tested on: COLO 205
CCRF-CEM = tested on: CCRF-CEM

Row | Compound | GI50 (A549) | GI50 (NCI-H23) | GI50 (HOP-62) | GI50 (NCI-H522) | GI50 (HOP-92) | GI50 (SNB-75) | GI50 (HCC 2998) | GI50 (U-251) | GI50 (M19-MEL) | GI50 (SF-268) | GI50 (SR) | GI50 (SF-295) | GI50 (OVCAR-8) | GI50 (BT-549) | GI50 (LOX IMVI) | GI50 (TK-10) | GI50 (A498) | GI50 (IGROV-1) | GI50 (COLO 205) | GI50 (CCRF-CEM)
1 | CNC(=O)ON(C(C)=O)C(=O)NC [CARACEMIDE] | 92.3 µM (inactive) | 41.8 µM (inactive) | 140 µM (inactive) | 21.5 µM (inactive) | 17.9 µM (inactive) | 70.3 µM (inactive) | > 100 µM (inactive) | 82.8 µM (inactive) | 112 µM (inactive) | 75 µM (inactive) | 28.1 µM (inactive) | 115 µM (inactive) | 78.3 µM (inactive) | 19.3 µM (inactive) | 33.7 µM (inactive) | 25.5 µM (inactive) | 87.7 µM (inactive) | 86.9 µM (inactive) |  | 
2 | CN(C)CCCCC1CCN(CC(=O)N2c3ccccc3NC(=O)c3ccccc32)CC1 | > 100 µM (inactive) | > 100 µM (inactive) | > 100 µM (inactive) | > 100 µM (inactive) | > 100 µM (inactive) | > 100 µM (inactive) | > 100 µM (inactive) |  | > 100 µM (inactive) | > 100 µM (inactive) | > 100 µM (inactive) | > 100 µM (inactive) | > 100 µM (inactive) |  |  | > 100 µM (inactive) | > 100 µM (inactive) |  | > 100 µM (inactive) | 69.8 µM (inactive)
3 | O=C(OC1CCC2OOC1O2)c1ccc([N+](=O)[O-])cc1 (stereo not drawn) | > 100 µM (inactive) | > 100 µM (inactive) | > 100 µM (inactive) | > 100 µM (inactive) |  | > 100 µM (inactive) | > 100 µM (inactive) | > 100 µM (inactive) | > 100 µM (inactive) | > 100 µM (inactive) | > 100 µM (inactive) | > 100 µM (inactive) | > 100 µM (inactive) |  | > 100 µM (inactive) | > 100 µM (inactive) | > 100 µM (inactive) | > 100 µM (inactive) | > 100 µM (inactive) | > 100 µM (inactive)
4 | CCCN1C(=O)C/C(=C\C(C)=O)Nc2ccccc21 | > 100 µM (inactive) | > 100 µM (inactive) | > 100 µM (inactive) | > 100 µM (inactive) | > 100 µM (inactive) | > 100 µM (inactive) | > 100 µM (inactive) | > 100 µM (inactive) | > 100 µM (inactive) | > 100 µM (inactive) | > 100 µM (inactive) | > 100 µM (inactive) | > 100 µM (inactive) |  | > 100 µM (inactive) | > 100 µM (inactive) |  | > 100 µM (inactive) | 86.3 µM (inactive) | > 100 µM (inactive)
5 | C[n+]1c2ccccc2c(/C=N\NS(=O)(=O)c2ccc(O)c(C(=O)O)c2)c2ccccc21 | 23.4 µM (inactive) | 91.4 µM (inactive) | > 100 µM (inactive) | 30.6 µM (inactive) | 46.7 µM (inactive) | 34.2 µM (inactive) | > 100 µM (inactive) | 94 µM (inactive) | 99.8 µM (inactive) | 40.7 µM (inactive) |  | > 100 µM (inactive) | 43.7 µM (inactive) |  | 12.9 µM (inactive) | > 100 µM (inactive) | 37.6 µM (inactive) | 58.5 µM (inactive) |  | 21.8 µM (inactive)
6 | N#C/N=C1\NCCC(=O)N1CCc1c[nH]c2ccccc12 | > 100 µM (inactive) | > 100 µM (inactive) | > 100 µM (inactive) |  |  | > 100 µM (inactive) | > 100 µM (inactive) |  | > 100 µM (inactive) | > 100 µM (inactive) | > 100 µM (inactive) | > 100 µM (inactive) | > 100 µM (inactive) |  | > 100 µM (inactive) | > 100 µM (inactive) |  | > 100 µM (inactive) | > 100 µM (inactive) | > 100 µM (inactive)
7 | Cc1cc([N+](=O)[O-])ccc1Nc1cccc(Cl)c1C | 16.6 µM (inactive) | 17.1 µM (inactive) | 14.7 µM (inactive) | 16.1 µM (inactive) |  | 19.2 µM (inactive) | 18.3 µM (inactive) | 16.3 µM (inactive) | 16.5 µM (inactive) | 17 µM (inactive) | 14.7 µM (inactive) | 18.9 µM (inactive) | 15.1 µM (inactive) |  | 17.3 µM (inactive) | 14.8 µM (inactive) | 15.3 µM (inactive) | 13.6 µM (inactive) | 17 µM (inactive) | 16.5 µM (inactive)
8 | O=c1cccccc1NCCCCCCCCNc1cccccc1=O | 39.9 µM (inactive) | 6.78 µM (inactive) | > 100 µM (inactive) | 75.3 µM (inactive) | 22.9 µM (inactive) | 32.4 µM (inactive) | > 100 µM (inactive) | > 100 µM (inactive) | > 100 µM (inactive) | > 100 µM (inactive) | 17.8 µM (inactive) | 18.8 µM (inactive) | > 100 µM (inactive) |  | 14.3 µM (inactive) |  |  | 94.2 µM (inactive) | > 100 µM (inactive) | > 100 µM (inactive)
9 | CCC(/C=C/c1ccccc1)=N\N=C(\C=C\c1ccccc1)CC | > 100 µM (inactive) | > 100 µM (inactive) | > 100 µM (inactive) | > 100 µM (inactive) |  | > 100 µM (inactive) | > 100 µM (inactive) | > 100 µM (inactive) | > 100 µM (inactive) | > 100 µM (inactive) | > 100 µM (inactive) | > 100 µM (inactive) | > 100 µM (inactive) |  | > 100 µM (inactive) | > 100 µM (inactive) | > 100 µM (inactive) | > 100 µM (inactive) | > 100 µM (inactive) | > 100 µM (inactive)
10 | O=C1/C(=N\O)S(=O)(=O)c2ccccc21 | > 100 µM (inactive) |  | > 100 µM (inactive) | > 100 µM (inactive) | > 100 µM (inactive) | > 100 µM (inactive) | > 100 µM (inactive) | > 100 µM (inactive) | > 100 µM (inactive) | > 100 µM (inactive) | > 100 µM (inactive) | > 100 µM (inactive) | > 100 µM (inactive) |  | > 100 µM (inactive) | > 100 µM (inactive) | > 100 µM (inactive) | > 100 µM (inactive) | > 100 µM (inactive) | > 100 µM (inactive)
11 | COc1ccccc1/C=C(\C#N)c1ccccc1 | 37 µM (inactive) | 41.5 µM (inactive) | 46.5 µM (inactive) | 16.6 µM (inactive) | 45 µM (inactive) | 25.9 µM (inactive) | 34.4 µM (inactive) | 24.6 µM (inactive) | 32.6 µM (inactive) | 82.8 µM (inactive) | 15.6 µM (inactive) | 52.7 µM (inactive) | 50.5 µM (inactive) |  | 46.9 µM (inactive) | 40.7 µM (inactive) | 24.2 µM (inactive) | 43.3 µM (inactive) | 15.6 µM (inactive) | 17.7 µM (inactive)
12 | N=S(=O)(c1ccccc1)c1ccccc1[N+](=O)[O-] (stereo not drawn) | > 100 µM (inactive) | > 100 µM (inactive) | > 100 µM (inactive) | > 100 µM (inactive) |  | > 100 µM (inactive) | > 100 µM (inactive) | > 100 µM (inactive) | > 100 µM (inactive) |  | > 100 µM (inactive) | > 100 µM (inactive) | > 100 µM (inactive) |  |  | > 100 µM (inactive) | > 100 µM (inactive) | > 100 µM (inactive) | > 100 µM (inactive) | > 100 µM (inactive)
13 | O=S(=O)(c1ccccc1)n1cnc(CCc2ccccc2)n1 | > 100 µM (inactive) | > 100 µM (inactive) | > 100 µM (inactive) | > 100 µM (inactive) | > 100 µM (inactive) | 45.1 µM (inactive) |  | > 100 µM (inactive) | > 100 µM (inactive) | > 100 µM (inactive) | > 100 µM (inactive) | > 100 µM (inactive) | > 100 µM (inactive) |  | > 100 µM (inactive) | > 100 µM (inactive) | > 100 µM (inactive) | > 100 µM (inactive) | > 100 µM (inactive) | > 100 µM (inactive)
14 | CCOC(=O)C(=Cc1cccnc1C)C(=O)OCC | 15.6 µM (inactive) | 4.09 µM (inactive) | 18.8 µM (inactive) | 3.89 µM (inactive) | 7.01 µM (inactive) | 3.13 µM (inactive) |  | 6.18 µM (inactive) | 7.91 µM (inactive) | 9.89 µM (inactive) | 3.61 µM (inactive) | 10.6 µM (inactive) | 5.18 µM (inactive) |  | 3.71 µM (inactive) | 12.9 µM (inactive) | 10.9 µM (inactive) | 7.6 µM (inactive) | 5.6 µM (inactive) | 3.93 µM (inactive)
15 | COC1=CC(=O)c2c(cc3c(c2O)-c2c(OC)cc4cc5c(c(O)c4c2OC(=O)CC(C)(O)C3)C(=O)CC(C)(O)C5)C1=O (stereo not drawn) | 2.68 µM (inactive) | 0.624 µM (active) | 1.21 µM (inactive) | 1.32 µM (inactive) | 1.95 µM (inactive) | 1.29 µM (inactive) | 1.24 µM (inactive) | 2.77 µM (inactive) | 0.379 µM (active) | 2.97 µM (inactive) | 2.02 µM (inactive) | 1.44 µM (inactive) | 1.55 µM (inactive) |  | 1.22 µM (inactive) | 3.85 µM (inactive) | 2.48 µM (inactive) | 1.9 µM (inactive) | 1.57 µM (inactive) | 1.95 µM (inactive)
16 | CN(C)CCCNc1ccnc2c([N+](=O)[O-])cccc12 | 28.2 µM (inactive) | 14.6 µM (inactive) | 29.3 µM (inactive) | 17.1 µM (inactive) |  |  | 13.6 µM (inactive) | 30.2 µM (inactive) | 2.44 µM (inactive) | 19.1 µM (inactive) | 27.9 µM (inactive) | 20.9 µM (inactive) | 20.7 µM (inactive) |  | 19.5 µM (inactive) | > 100 µM (inactive) |  |  | 2.37 µM (inactive) | 34.3 µM (inactive)
